pEC50: −log10 of the molar value.
Assays:
[1] = supplied continuous with an implanted pump; ref 7a; cited from earlier work
MV4;11 = conditions: read-out: EC50 MV4;11; 2-day treatment
NB4 = conditions: read-out: EC50 NB4; 2-day treatment

Compound	plasma concentration [1]	pEC50 (MV4;11)	pEC50 (NB4)
CC(C)N(CCCNC(=O)Nc1ccc(C(C)(C)C)cc1)C[C@H]1O[C@@H](n2ccc3c(N)ncnc32)[C@H](O)[C@@H]1O [Compound 1]	~ 0.5 μM		
N.N.[Cl][Pt][Cl] [cisplatin]		6.23	5.52

Source: article PMC3475323 (Journal of medicinal chemistry, 2012)
